According to article PMC4669722, “Antitumour potential of BPT: a dual inhibitor of cdk4 and tubulin polymerization” (Cell Death & Disease, 2015):
Like-named read-outs stand apart in the source and are kept apart here.

How the values were obtained:
[1] = test system: BNL SV A.8 (mouse hepatic; SV40-mediated transformed cells); assay: Cell proliferation (MTT) assay, BNL SV A.8; assay type: cell-based
Description: (§1) All 10 human cancer cell lines were maintained at 37 °C in 5% CO2 in RPMI-1640 medium, supplemented with 10% foetal calf serum and 100 μg/ml normocin. The 10 cancer cell lines used for screening were all obtained from ATCC (Manassas, VA, USA); they were the NSCLC (a form of cancer that is resistant to chemotherapy) lines: NCI-H460 (pRb^+, p53^+), A549 (pRb^+, p53^+), Calu-1 (pRb^+, p53-null), NCI-H1299 (pRb^+, p53-null), NCI-H358 (pRb-null, p53-null); the colon cancer line LS174T (pRb^+, p53^+); the prostate cancer line PC-3 (pRb^+, p53-null); the pancreatic cancer line MiaPaca (pRb^+, p53-mutant). The genotypes within brackets indicate the status of the tumour suppressor proteins pRb and p53. The mouse embryonic normal hepatic cell line (BNL CL2) and its SV40 large T-antigen-transformed counterpart cell line (BNL SV A.8) were also purchased from ATCC. The large T-antigen inactivates the tumour suppressor proteins p53 and pRb. The detailed procedure of cell proliferation (MTT) assay and IC50 determination was described previously.[32]

Cdk7-cyclin H = Cdk7-cyclin H (Homo sapiens, UniProt P50613); assay: Kinase profiling (Millipore), Cdk7-cyclin H; assay type: biochemical
Description: (§2) The in vitro kinase assays for testing against Cdk4-cyclin D1, Cdk2-cyclin A, Cdk1-cyclin B1 and Cdk9-cyclin T1 were performed in-house. The methodology and results have been reported previously.[20], [30], [31], [32], [45] The kinase profiling for 58 representative kinases was carrried out commercially at Millipore Bioscience Division, Livingston, UK.

Cdk4-cyclin D1 = Cdk4-cyclin D1 (Homo sapiens, UniProt P11802); assay: In vitro kinase assay, Cdk4-cyclin D1 (in-house); assay type: biochemical
Description: as §2

tubulin in A549 cells = assay: Tubulin polymerization/depolymerization in live cells (western blot); assay type: cell-based, human
Description: A549 (NSCLC) cells were seeded at a concentration of 10 000 cells per well in 1 ml complete growth medium in 24-well per 15 mm culture plates. The plates were incubated for 24 h for cell attachment and stabilization. In the first set of experiments, the cells were treated with 10 nM paclitaxel and different concentrations of BPT for 30 min (cells underwent simultaneous treatment of paclitaxel and BPT). In the second set of experiments, to study the effect of BPT on the stabilised form of tubulin, cells were pretreated with 10 nM paclitaxel for 30 min. The cell monolayer was washed two times with sterile PBS and fresh growth medium containing different concentrations of BPT were added. The plates were further incubated for 30 min, the cell monolayers were washed two times with sterile PBS at room temperature and then 100 μl tubulin extraction buffer (1 mM MgCl2, 2 mM EGTA, 0.5% NP40 and 20 mM Tris-HCl (pH 6.8)) supplemented with 2 mM phenylmethylsulfonyl fluoride, and a protease inhibitor cocktail (Sigma-Aldrich; cat. no. P8340) was added per well. After a short and vigorous vortex mixing, the cell lysates were incubated at room temperature for 5 min and then centrifuged at 16 000 r.p.m. for 10 min to separate the soluble and polymerized tubulin fractions. […]

PKCα = PKCα (Homo sapiens, UniProt P17252); assay: Kinase profiling (Millipore), PKCα; assay type: biochemical
Description: as §2

MAPK1 = MAPK1 (Homo sapiens, UniProt P27361); assay: Kinase profiling (Millipore), MAPK1; assay type: biochemical
Description: as §2

IGF-1 R = IGF-1 R (Homo sapiens, UniProt P08069); assay: Kinase profiling (Millipore), IGF-1 R; assay type: biochemical
Description: as §2

[2] = test system: p53+ A549 and LS174T cells; assay: Western blot of cell cycle proteins in p53+ cells; assay type: cell-based, human; settings: IC50 concentration, 24 h
Description: A549, LS174T and MiaPaCa cells were seeded in 25 cm^2 tissue culture flasks in the complete growth medium. […] Cells were harvested by trypsinization, washed in ice-cold PBS and then lysed in buffer (Sigma-Aldrich; cat. no. C-2978) containing protease inhibitor cocktail (Sigma-Aldrich; cat. no. P8340). The lysates were centrifuged at 14 000 r.p.m. (revolutions per minute) for 10 min at 4 °C and the total protein concentrations were estimated in the clear supernatants using the Bradford method. Equal amounts of protein (40 μg) were loaded and electrophoresed on 10% SDS-polyacrylamide gels and blotted on Immobilon-P Transfer Membrane (Millipore; cat. no.IPVH20200). The blots were probed with respective primary antibodies (at 4 °C, overnight) at the following dilutions: cdc2 (New England Biolabs, Hitchin, UK; cat. no. 9110) at 1 : 1000 to detect Cdk1; cyclin B1 (CRUK, London, UK; cat. no. V152) at 1 : 1500 dilution to detect cyclin B1; Pab 1801 (Santa Cruz Biotechnology, Heidelberg, Germany; cat. no. sc-98) at 1 : 500 dilution to detect p53; N-20 (Santa Cruz Biotechnology; cat. no. sc-469) at 1 : 500 dilution to detect p21; C-19 (Santa Cruz Biotechnology; cat. no. sc-528) at 1 : 250 dilution to detect p27; AC-40 (Sigma-Aldrich; cat. no. A4700) at 1 : 2000 dilution to detect actin. Appropriate secondary antibodies conjugated with horseradish peroxidase were used and the protein bands were visualized by chemiluminescence using the ECL Kit (Santa Cruz Biotechnology; cat. no. sc-2048).

EGFR = EGFR (Homo sapiens, UniProt P00533); assay: Kinase profiling (Millipore), EGFR; assay type: biochemical
Description: as §2

Cdk6-cyclin D1 = Cdk6-cyclin D1 (Homo sapiens, UniProt Q00534); assay: Kinase profiling (Millipore), Cdk6-cyclin D1; assay type: biochemical
Description: as §2

[3] = test system: NCI-H1299 (NSCLC; p53 null, pRb+); assay: Cell proliferation (MTT) assay, NCI-H1299; assay type: cell-based; settings: Homo sapiens, 48 h, read-out: IC50 cell growth inhibition, NCI-H1299
Description: as §1

[4] = test system: NCI-H358 (NSCLC; p53 null, pRb null); assay: Cell proliferation (MTT) assay, NCI-H358; assay type: cell-based; settings: Homo sapiens, 48 h, read-out: IC50 cell growth inhibition, NCI-H358
Description: as §1

[5] = BNL SV A.8, concentration used in long-term survival assay (Fig. S3)

Sequence of Cdk4-cyclin D1 (P11802 whole entry): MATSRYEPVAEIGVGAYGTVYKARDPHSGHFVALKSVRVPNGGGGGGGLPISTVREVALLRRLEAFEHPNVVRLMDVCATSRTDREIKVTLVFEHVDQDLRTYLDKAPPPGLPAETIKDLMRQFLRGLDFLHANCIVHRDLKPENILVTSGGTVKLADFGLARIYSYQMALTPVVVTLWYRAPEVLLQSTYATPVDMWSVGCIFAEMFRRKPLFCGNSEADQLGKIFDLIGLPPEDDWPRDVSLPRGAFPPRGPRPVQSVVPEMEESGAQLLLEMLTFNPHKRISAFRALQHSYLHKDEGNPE
Sequence of Cdk4-cyclin D1 (P24385 whole entry partner): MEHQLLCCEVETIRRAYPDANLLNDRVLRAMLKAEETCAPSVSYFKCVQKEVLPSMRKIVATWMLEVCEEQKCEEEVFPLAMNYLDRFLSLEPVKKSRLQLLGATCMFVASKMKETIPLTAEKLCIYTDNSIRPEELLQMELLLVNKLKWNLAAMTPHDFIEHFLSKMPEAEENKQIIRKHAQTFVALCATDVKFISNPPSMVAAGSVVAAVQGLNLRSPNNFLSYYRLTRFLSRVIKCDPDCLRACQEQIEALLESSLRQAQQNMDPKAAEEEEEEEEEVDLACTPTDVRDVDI
Sequence of IGF-1 R (P08069 31-1367): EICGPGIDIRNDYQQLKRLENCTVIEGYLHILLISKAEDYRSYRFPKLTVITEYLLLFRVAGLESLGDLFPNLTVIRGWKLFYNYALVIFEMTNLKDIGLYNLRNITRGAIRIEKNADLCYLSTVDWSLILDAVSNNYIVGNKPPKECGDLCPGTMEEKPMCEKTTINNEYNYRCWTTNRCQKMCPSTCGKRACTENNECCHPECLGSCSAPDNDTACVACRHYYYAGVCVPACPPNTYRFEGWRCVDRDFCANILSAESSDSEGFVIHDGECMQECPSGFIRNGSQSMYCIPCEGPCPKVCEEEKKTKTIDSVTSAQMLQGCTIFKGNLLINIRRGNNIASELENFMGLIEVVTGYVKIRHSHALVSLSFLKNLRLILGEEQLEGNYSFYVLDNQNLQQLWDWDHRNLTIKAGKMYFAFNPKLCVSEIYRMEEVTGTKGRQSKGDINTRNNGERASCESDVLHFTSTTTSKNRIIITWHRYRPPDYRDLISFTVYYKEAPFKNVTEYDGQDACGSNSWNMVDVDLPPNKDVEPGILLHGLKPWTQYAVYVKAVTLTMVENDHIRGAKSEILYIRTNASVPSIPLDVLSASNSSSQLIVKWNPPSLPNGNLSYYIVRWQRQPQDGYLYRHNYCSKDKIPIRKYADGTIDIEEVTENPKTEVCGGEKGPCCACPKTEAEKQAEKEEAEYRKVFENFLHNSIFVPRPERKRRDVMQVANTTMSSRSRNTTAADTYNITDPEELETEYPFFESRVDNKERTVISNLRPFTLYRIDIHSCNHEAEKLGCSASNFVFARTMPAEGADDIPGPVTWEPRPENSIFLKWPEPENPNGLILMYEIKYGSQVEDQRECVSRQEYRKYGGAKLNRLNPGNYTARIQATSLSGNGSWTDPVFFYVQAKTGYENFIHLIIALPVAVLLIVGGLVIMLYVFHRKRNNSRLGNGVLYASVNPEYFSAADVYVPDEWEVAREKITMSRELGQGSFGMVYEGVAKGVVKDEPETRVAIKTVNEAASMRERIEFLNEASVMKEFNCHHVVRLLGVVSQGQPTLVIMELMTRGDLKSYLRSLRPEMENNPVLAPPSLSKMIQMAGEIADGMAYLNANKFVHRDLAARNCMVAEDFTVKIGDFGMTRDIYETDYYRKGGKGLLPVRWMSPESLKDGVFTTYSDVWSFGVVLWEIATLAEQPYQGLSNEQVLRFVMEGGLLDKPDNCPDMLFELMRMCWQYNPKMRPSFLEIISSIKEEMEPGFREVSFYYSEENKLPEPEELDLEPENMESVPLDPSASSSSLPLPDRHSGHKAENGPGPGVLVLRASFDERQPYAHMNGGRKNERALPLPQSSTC
Sequence of EGFR (P00533 25-1210): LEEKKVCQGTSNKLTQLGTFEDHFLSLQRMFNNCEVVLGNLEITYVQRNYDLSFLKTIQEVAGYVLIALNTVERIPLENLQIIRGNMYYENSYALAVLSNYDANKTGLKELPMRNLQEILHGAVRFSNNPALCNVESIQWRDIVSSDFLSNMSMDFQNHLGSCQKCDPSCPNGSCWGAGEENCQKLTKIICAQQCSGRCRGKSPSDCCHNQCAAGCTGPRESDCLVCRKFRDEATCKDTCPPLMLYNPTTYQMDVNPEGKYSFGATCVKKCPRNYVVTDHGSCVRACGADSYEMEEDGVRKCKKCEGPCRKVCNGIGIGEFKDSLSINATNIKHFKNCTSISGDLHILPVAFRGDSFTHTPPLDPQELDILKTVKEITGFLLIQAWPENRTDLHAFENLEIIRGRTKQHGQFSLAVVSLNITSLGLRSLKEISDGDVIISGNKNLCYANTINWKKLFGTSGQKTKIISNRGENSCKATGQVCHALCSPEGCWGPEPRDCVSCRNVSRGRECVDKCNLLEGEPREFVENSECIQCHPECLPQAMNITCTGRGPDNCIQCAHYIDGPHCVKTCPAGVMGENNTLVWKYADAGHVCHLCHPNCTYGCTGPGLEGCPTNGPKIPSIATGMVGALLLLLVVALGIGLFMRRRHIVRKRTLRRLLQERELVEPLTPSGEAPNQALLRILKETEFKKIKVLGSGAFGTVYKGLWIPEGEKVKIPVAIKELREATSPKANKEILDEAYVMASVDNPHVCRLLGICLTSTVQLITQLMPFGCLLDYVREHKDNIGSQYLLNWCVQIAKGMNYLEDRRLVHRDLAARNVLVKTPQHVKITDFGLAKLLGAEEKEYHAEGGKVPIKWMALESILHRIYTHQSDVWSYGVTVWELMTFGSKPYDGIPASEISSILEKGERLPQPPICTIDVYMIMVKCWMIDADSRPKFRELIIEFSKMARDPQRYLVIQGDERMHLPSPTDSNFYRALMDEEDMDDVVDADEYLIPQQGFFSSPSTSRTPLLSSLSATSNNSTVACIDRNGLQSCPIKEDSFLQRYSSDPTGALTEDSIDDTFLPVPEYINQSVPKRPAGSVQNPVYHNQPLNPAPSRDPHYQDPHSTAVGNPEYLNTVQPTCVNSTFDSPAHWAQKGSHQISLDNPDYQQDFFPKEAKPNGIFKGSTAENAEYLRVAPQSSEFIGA
Sequence of Cdk6-cyclin D1 (P24385 whole entry): as the sequence (P24385 whole entry partner) above
Sequence of Cdk6-cyclin D1 (Q00534 whole entry): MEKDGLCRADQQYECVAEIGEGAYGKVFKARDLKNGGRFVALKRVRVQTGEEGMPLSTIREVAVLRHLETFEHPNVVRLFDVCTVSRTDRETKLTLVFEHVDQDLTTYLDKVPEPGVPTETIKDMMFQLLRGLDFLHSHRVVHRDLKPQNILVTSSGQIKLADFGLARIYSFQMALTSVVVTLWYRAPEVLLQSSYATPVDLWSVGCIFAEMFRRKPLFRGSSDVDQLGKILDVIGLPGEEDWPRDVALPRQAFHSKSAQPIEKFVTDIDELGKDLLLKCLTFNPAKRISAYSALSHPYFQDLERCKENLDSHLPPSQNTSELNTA
Sequence of MAPK1 (P27361 2-379 limits assumed): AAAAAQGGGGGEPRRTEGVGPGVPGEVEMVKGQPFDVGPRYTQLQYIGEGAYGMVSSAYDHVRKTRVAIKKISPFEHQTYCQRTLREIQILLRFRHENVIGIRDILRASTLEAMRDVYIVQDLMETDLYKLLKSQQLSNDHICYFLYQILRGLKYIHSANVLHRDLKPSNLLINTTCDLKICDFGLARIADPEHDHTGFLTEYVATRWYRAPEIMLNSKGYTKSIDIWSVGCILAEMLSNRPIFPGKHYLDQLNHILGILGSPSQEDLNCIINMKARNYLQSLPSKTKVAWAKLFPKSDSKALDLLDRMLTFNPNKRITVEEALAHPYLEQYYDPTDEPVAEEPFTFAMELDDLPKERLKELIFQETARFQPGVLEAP

## O=C(c1ccccc1-c1ccccc1)N1CCc2c([nH]c3ccccc23)C1 [BPT, 2-(biphenyl-2-carbonyl)-2,3,4,9-tetrahydro-1H-pyrido[3,4-b]indole]
[1]; [5]
  IC30: 400 nM
  IC70: 900 nM
[1]; Mus musculus, 48 h, MTT, read-out: IC50 cell growth inhibition, BNL SV A.8
  IC50: 750 nM
[1]; Mus musculus, BNL SV A.8, concentration used in long-term survival assay (Fig. S3)
  IC20: 250 nM
[1]; Mus musculus, BNL SV A.8, concentration used in long-term survival assay (Fig. S3), read-out: IC50
  IC50: 600 nM
Cdk7-cyclin H
  IC50: > 10000 nM
Cdk4-cyclin D1
  selectivity for Cdk4-cyclin D1 with respect to Cdk2-cyclin A: 83 fold
Cdk4-cyclin D1; three independent experiments, read-out: IC50 (mean±S.D.), Cdk4-cyclin D1
  IC50: 10000 ± 1200 nM
Tubulin in A549 cells; A549, simultaneous 10 nM paclitaxel and BPT, 30 min
  paclitaxel-mediated tubulin polymerization in live cells: inhibited in a dose-dependent manner
Tubulin in A549 cells; A549 pretreated with 10 nM paclitaxel 30 min, then BPT 30 min
  depolymerization of paclitaxel-stabilized tubulin in live cells: enhanced the tubulin depolymerization
PKCα
  IC50: > 10000 nM
MAPK1
  IC50: > 10000 nM
IGF-1 R
  IC50: > 10000 nM
[2]
  induction of p53: more than 10 fold
  levels of p21CIP1/WAF1 (p21): increase
  levels of p27KIP1 (p27): elevated
[2]; versus untreated control
  Cdk1 and cyclin B1 protein levels: downregulated
EGFR
  IC50: > 10000 nM
Cdk6-cyclin D1
  IC50: > 10000 nM
[3]
  IC50: 900 nM
[4]
  IC50: 680 nM
